Source: US9815849B2, “Compositions and methods for treating leukemia” (Dana-Farber Cancer Institute, Inc., priority 2010, dated 2017)
“Also recorded” adds a separate entry of the source.

Assays:
[1] = system: primary MLL-rearranged pediatric leukemias; experiment: Pediatric primary leukemia sample analysis (WST-1, 72 h); assay type: cell-based, human; conditions: 3/3 tested primary MLL-rearranged pediatric leukemias
Description: Diagnostic bone marrow samples were collected under institutional review board-approved protocols from newly diagnosed children with acute leukemia. Informed consent was obtained in accordance with the Helsinki protocol. At the time of collection, primary leukemic cells were enriched by density centrifugation using Ficoll-Paque PLUS (GE Healthcare, Piscataway, N.J.) and subsequently stored in liquid nitrogen. Vials of cryopreserved cells were thawed, resuspended in media, and live leukemic cells were enriched by density centrifugation. Cells were maintained in supplemented media with 20% fetal bovine serum. All leukemia cell cultures were incubated at 37° C. in 5% CO2.
WST-1 assays were performed in triplicate.

[2] = system: mouse MLL-fusion leukemia cells; experiment: Proliferation assay of mouse leukemia cells versus fibroblasts and G1E; assay type: cell-based; conditions: as compared to fibroblasts and G1E
Protocol: (§2) Proliferation assays were performed by counting the increase in viable cell number over seventy-two hours. Dead cells were excluded by incubating with propidium iodide (PI). Cell concentration measurements were performed on a Guava Easycyte (Millipore, Billerica, Mass.), gating only viable cells using forward/side scatter/PI-cells. Proliferation rate was calculated using the equation: ln(cell concentration72 h/cell concentration0 h)/72. Relative proliferation rate was calculated by normalizing to rate of DMSO-treated cells.

[3] = system: non-AML leukemia and solid tumor cell lines; experiment: Proliferation assay of non-AML leukemia and solid tumor cell lines; assay type: cell-based, human; conditions: other tested non-AML leukemia and solid tumor cell lines
Protocol: as §2

AML lines = experiment: BrdU cell cycle analysis and apoptosis measurement in AML lines; assay type: cell-based; conditions: all tested AML lines
Protocol: BrdU incorporation assays were performed according to the manufacturer's protocol (BD, APC BrdU Flow Kit, #552598), where cells were pulsed with BrdU for 30 min. Cells were co-stained with 7-AAD or DAPI for DNA content measurement. For all conditional shRNA experiments, the analysis was gated on shRNA+/dsRed+ cell populations. Annexin V staining for apoptosis was performed according to manufacturer's protocol (BD Biosciences, APC Annexin V, #550475). In FIG. 4e, Annexin V gating was performed on live cells (FSC/SCC) and dsRed+/shRNA+ population, to ensure a clear readout of shRNA effects. […] All analyses were performed using Flowjo software.

[4] = Pharmacokinetic study of (+)-JQ1 in mice (plasma, LCMS-MS); assay type: in vivo
Protocol: FIG. 29A includes a table of pharmacokinetic data and measured parameters. […] Data represent mean measurements and error bars indicate the standard deviation, both from triplicate independent measurements. Plasma concentrations of drug above the biologically active concentration observed in vitro (100 nM; horizontal red line) are observed for more than 10 hours by extrapolation.

[5] = system: MLL-AF9/Nras^G12D leukemia; experiment: MLL-AF9/NrasG12D leukemia transplant model, JQ1 treatment; assay type: in vivo, mice
Description: FIG. 12A includes bioluminescent images of mice administered doxycycline upon disease onset, i.e., six days post-transplant. Day zero is the first day of doxycycline administration. FIG. 12B includes a graph showing the quantification of bioluminescent imaging responses following doxycycline administration. Shown are mean values of four replicate mice. FIG. 12C includes a graph showing Kaplan-Meier survival curves of recipient mice transplanted with the indicated TRMPV-shRNA leukemia cell line. The period of doxycycline administration is indicated by an arrow. Statistical significance relative to shRNAs that target Renilla luciferase (shRen) was calculated using a Log-rank test; *p=0.0001, **p<0.0001. FIG. 12D includes flow cytometry of donor-derived (CD45.2-positive) bone marrow cells in terminally diseased doxycycline-administered mice. Gate shown includes dsRed-positive/shRNA-positive cells. FIG. 12E includes a graph showing the quantification of dsRed-positive/shRNA-positive percentage in CD45.2-positive terminal leukemia burden. […] Shown are mean values of 6 DMSO- and 7 JQ1-treated mice. p-values were calculated using a two-tailed Student's paired t-test. […] Statistical significance was calculated using a Log-rank test. […] Shown are mean values of 6 DMSO- and 7 JQ1-treated mice. p-values were calculated using a two-tailed Student's paired t-test. […]
Mice were transplanted with 1 million leukemia cells, followed by treatment initiation on day 4 (when disease becomes visible by imaging). FIG. 13B includes a graph showing quantitation of the bioluminescent images. […] Statistical significance was calculated using a Log-rank test. […] Statistical significance was calculated using a Log-rank test.
For whole body bioluminescent imaging mice were intraperitoneally injected with 50 mg/kg D-Luciferin (Goldbio, St. Louis, Mo.), and after 10 min. analyzed using an IVIS® Spectrum system (Caliper LifeSciences, Waltham, Mass.). Quantification was performed using Living Image software (Caliper LifeSciences) and standardized rectangular region of interests covering the mouse trunk and extremities. […]

[6] = system: AML1-ETO9a/Nras^G12D/p53^−/− AML; experiment: AML1-ETO9a/NrasG12D/p53-/- AML mouse model, JQ1 treatment; assay type: in vivo, mice; conditions: 50 mg/kg/d, treatment started after disease onset
Description: FIG. 14A is a schematic showing the experimental strategy. p53^−/− HSPCs were cotransduced with AML1-ETO9a and Luciferase-IRES-NrasG12D constructs, followed by transplantation of cells into a sublethally irradiated recipient mouse. With high-penetrance, mice succumb to AML as has been described previously (Dick, J. E., Blood 2008; 112:4793-807). Splenic leukemia material derived from moribund mice was transplanted into secondary recipient animals. […] FIG. 14B includes bioluminescent images of leukemic mice at indicated timepoints. […] Shown are mean values of 8 mice in each treatment group, error bars represent s.e.m, p-values were calculated using a two-tailed Student's paired t-test.

[7] = Tolerability and normal hematopoiesis in healthy mice after 20 days of JQ1; assay type: in vivo, C57BL/6 mice
Description: Peripheral blood was collected by submandibular bleeding and analyzed using a Hemavet 950 analyzer (Drew Scientific). Values represent average values of 3 replicate mice; error bars indicate s.e.m.
Representative images are shown.
FIG. 17B includes graphs showing the percentage of total bone marrow cells staining for the indicated antibodies. (n=3). Error bars indicate s.e.m.
Paraffin embedded sections were stained with hematoxylin & eosin (H&E). Photographs were taken on a Nikon Eclipse 80i microscope with a Nikon Digital Sight camera using NIS-Elements F2.30 software at a resolution of 2560×1920. Using Adobe Photoshop CS2, images were re-sized and set at a resolution of 300 pixels/inch, autocontrast was applied, and unsharp mask was used to improve image clarity.

[8] = system: MLL-AF9/Nras^G12D leukemia cells; experiment: May-Grunwald/Giemsa cytospin morphology of leukemia cells; assay type: cell-based, mouse; conditions: 100 nM JQ1, 2 days
Protocol: 50,000 cells were resuspend in 100 μl FACS buffer (5% FBS, 0.05% NaN3 in PBS) cytospun onto glass slides using Shandon Cytospin 2 Centrifuge at 500 rpm for 5 min. May-Grunwald (Sigma-Aldrich, #019K4368) and Giemsa (Sigma-Aldrich, #010M4338) stainings were performed according to manufacturer's protocols. Images were collected using a Zeiss Observer Microscope with a 40× objective.

Myc [9] = experiment: Myc RT-qPCR and Western blot in leukemia cells; assay type: cell-based, mouse
Protocol: FIG. 20D includes a graph showing RT-qPCR results. […] FIG. 20E includes a graph showing ChIP-qPCR results. […] TSS=transcription start site. […] (n=3). […] Representative images taken at 40× objective are shown. All error bars shown represent s.e.m.
For Brd4 Western blots, 30 μg of whole cell lysate RIPA extract (25 mM Tris pH7.6, 150 mM NaCl, 1% NP-40, 1% Sodium deoxycholate, 0.1% SDS) was loaded into each lane. For Myc Western blots, cells were lysed directly in Laemmli buffer. About 50,000 cell equivalents were loaded in each lane. Protein extracts were resolved by SDS-PAGE electrophoresis and transferred to nitrocellulose for blotting.
(§1) RNA was prepared using Trizol® reagent (Invitrogen, Carlsbad, Calif.). cDNA synthesis was performed using gScript™ cDNA SuperMix (Quanta Biosciences, Gaithersburg, Md., #101414-106). Quantitative PCR (qPCR) analysis was performed on an ABI™ 7900HT with Sybr green (ABI, Carlsbad, Calif., #4364344). All signals were quantified using the delta-Ct method. All signals were normalized to the levels of GAPDH.

Myc [10] = experiment: Myc levels in MEF or G1E cells; assay type: cell-based, mouse
Protocol: as §1

Hoxa7, Hoxa9, Meis1 = experiment: RT-qPCR of direct MLL-AF9 target genes; assay type: cell-based, mouse; conditions: JQ1 treatment of leukemia cells
Description: FIGS. 30A-30C show the broadly overlapping transcriptional effects elicited upon suppressing Brd4, Myb, and MLL-AF9 with downregulation of Myc upon suppressing any of the three factors. FIG. 30A includes GSEA plots evaluating transcriptional signatures downstream of MLL-AF9 and Myb. […] The 500 gene cutoff corresponds to a Log2 fold-change of −1.17 for Myb and −1.77 for MLL-AF9. FIG. 30B includes a heat map representation of Myc expression in the indicated microarray replicates. Log2 fold-change and adj.P.Val were calculated using Limma algorithm, implemented using Bioconductor. FIG. 30C includes a graph showing RT-qPCR results. […] Error bars represent s.e.m.
as §1

Brd4 = Brd4 (Mus musculus, UniProt Q9ESU6); conditions: MLL-AF9/Nras^G12D leukemia cells
Protocol: ChIP assays were performed exactly as described (Filippakopoulos et al.). […] All results were quantified by qPCR performed using SYBR green (ABI) on an ABI 7900HT. Each IP signal was referenced to an input standard curve dilution series (IP/Input) to normalize for differences in starting cell number and for primer amplification efficiency.

AML cell lines = experiment: cells; conditions: Homo sapiens, 72 h, read-out: IC50, growth-suppressive activity (proliferation rate)
Protocol: as §2

primary AMLs = experiment: cells; conditions: Homo sapiens, read-out: IC50, growth-suppressive activity
Protocol: Primary leukemic cells were obtained from peripheral blood (PB) or bone marrow (BM) aspirate samples of 12 (untreated) patients with AML at diagnosis (n=10) or at relapse (n=2). […] Mononuclear cells (MNC) were prepared using Ficoll and stored in liquid nitrogen until used. […] HL60 and MOLM13 cell lines were included as controls (German Collection of Microorganisms and Cell Cultures, DSMZ, Braunschweig, Germany).
Filters were air-dried, and the bound radioactivity was measured in a β-counter (Top-Count NXT, Packard Bioscience). All experiments were performed in triplicates.

[11] = daily injections of JQ1 50 mg/kg vs vehicle

With Cc1sc2c(c1C)C(c1ccc(Cl)cc1)=NC(CC(=O)OC(C)(C)C)c1nnc(C)n1-2 (racemic) [JQ1, tert-Butyl 2-(4-(4-chlorophenyl)-2,3,9-trimethyl-6H-thieno[3,2-f][1,2,4]triazolo[4,3-a][1,4]diazepin-6-yl)acetate] the “sensitivity to JQ1” value [1] was “highly sensitive”, the proliferation sensitivity [2] was “strikingly sensitive to sub-micromolar JQ1 concentrations” and the “sensitivity to the compound” value [3] was “minimal sensitivity”. The “cell-cycle arrest and apoptosis” value (AML lines) was “universally triggered cell-cycle arrest and apoptosis”, the half-life ([4]; in rodents) was “about one” and the “disease progression (bioluminescent imaging)” value [5, 11] was “marked delay in disease progression”. For the same molecule, the survival [5, 11] was “significantly extended survival”, the “activity in established disease” value ([5]; established MLL-AF9/NrasG12D leukemia, 50 or 100 mg/kg/d) was “single-agent activity in the setting of established disease” and the “activity in established disease” value [6] was “single-agent anti-leukemia activity”. The “impact on normal hematopoiesis” value ([7]; 50 or 100 mg/kg/d intraperitoneal for 20 days) was “little if any impact on normal hematopoiesis; also recorded: minimal impact on normal hematopoiesis”, the “H&E histopathology of sternal bone marrow” value ([7]; daily intraperitoneal 50 mg/kg or 100 mg/kg for 20 days) was “normal cellularity and normal mixed hematopoiesis” and the tolerability ([7]; mice) was “well-tolerated”. The “cell morphology (differentiation)” value [8] was “macrophage-like appearance”, the “time to downregulation of Myc mRNA levels” value (Myc [9]; 250 nM JQ1, MLL-AF9/Nras^G12D leukemia cells) was ≤ 60 min and the “Myc mRNA and protein levels” value (Myc [9]; mouse MLL-AF9/Nras^G12D leukemia cells) was “dramatic reduction in Myc mRNA levels and Myc protein levels”. For the same molecule, the “effect on Myc levels” value (Myc [10]) was “minimal effects”, the “expression of Hoxa7, Hoxa9, or Meis1” value (Hoxa7, Hoxa9, Meis1) was “does not influence expression” and the “focal Brd4 occupancy ~2 kilobases upstream of the Myc promoter” value (Brd4) was “eliminated”. For the same molecule, the IC50 (AML cell lines) was < 500 nM and the IC50 (primary AMLs) was < 500 nM.
For Cc1sc2c(c1C)C(c1ccc(Cl)cc1)=N[C@@H](CC(=O)OC(C)(C)C)c1nnc(C)n1-2 [(+)-JQ1, (S)-tert-Butyl 2-(4-(4-chlorophenyl)-2,3,9-trimethyl-6H-thieno[3,2-f][1,2,4]triazolo[4,3-a][1,4]diazepin-6-yl)acetate], the “time with plasma concentration above the biologically active concentration observed in vitro (100 nM)” value ([4]; 50 mg/kg intraperitoneal, by extrapolation) was “more than 10 hours”, the Cmax ([4]; mouse, plasma, ip, single intraperitoneal injection 50 mg/kg, adult C1 male mice, read-out: peak plasma concentration (Cmax)) was > 20 µM and the AUC ([4]; mouse, plasma, ip, single intraperitoneal injection 50 mg/kg, adult C1 male mice, read-out: total drug exposure (AUC)) was > 20000 ng·h/mL.
